Experiments:
Experiment in all cases: relative viability (nuclei count vs DMSO), 5 days (fraction); higher = more cells survive
[1] = compound: CC1=CN=C(N=C1C2=CNC(=C2)C(=O)N[C@H](CO)C3=CC(=CC=C3)Cl)NC4=C(C=C(C=C4)F)Cl [VX-11e] + Nc1nc2[nH]cc(CCc3ccc(C(=O)N[C@@H](CCC(=O)O)C(=O)O)cc3)c2c(=O)[nH]1 [Pemetrexed] (partner 0.2 µM)
Method in brief: (§1)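 A single step with final 0.05% Triton X-100, 1% formaldehyde and 1 ug/ml Hoechst fixed the cells and stained nuclei 5 days after treatment. Lung cancer cell lines in 1536-well plates had been treated by pin tool the day after seeding with one drug alone or a fixed anchor-drug dose plus five library-drug doses (not always all listed) in √10 steps, and nuclei were counted on 4× images. Relative viability is the ratio of nuclei in treated wells to nuclei in vehicle wells, taken as the median of duplicate plates.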

[2] = compound: CC1=CN=C(N=C1C2=CNC(=C2)C(=O)N[C@H](CO)C3=CC(=CC=C3)Cl)NC4=C(C=C(C=C4)F)Cl [VX-11e] + C[C@]1(O)C[C@@H](c2nc(-c3ccc4ccc(-c5ccccc5)nc4c3)c3c(N)nccn32)C1 [Linsitinib] (partner 1 µM)
Method in brief: as §1

[3] = compound: CC1=CN=C(N=C1C2=CNC(=C2)C(=O)N[C@H](CO)C3=CC(=CC=C3)Cl)NC4=C(C=C(C=C4)F)Cl [VX-11e] + CC1(C)CCC(c2ccc(Cl)cc2)=C(CN2CCN(c3ccc(C(=O)NS(=O)(=O)c4ccc(N[C@H](CCN5CCOCC5)CSc5ccccc5)c(S(=O)(=O)C(F)(F)F)c4)cc3)CC2)C1 [Navitoclax] (partner 0.5 µM)
Method in brief: as §1

[4] = compound: CC1=CN=C(N=C1C2=CNC(=C2)C(=O)N[C@H](CO)C3=CC(=CC=C3)Cl)NC4=C(C=C(C=C4)F)Cl [VX-11e] + O=C(CCCCCCC(=O)Nc1ccccc1)NO [Vorinostat] (partner 1 µM)
Method in brief: as §1

Cell Line | relative viability ([1]; first compound 0.04 µM) | relative viability ([1]; first compound 0.1265 µM) | relative viability ([1]; first compound 0.4 µM) | relative viability ([1]; first compound 1.265 µM) | relative viability ([1]; first compound 4 µM) | relative viability ([2]; first compound 0.04 µM) | relative viability ([2]; first compound 0.1265 µM) | relative viability ([2]; first compound 0.4 µM) | relative viability ([2]; first compound 1.265 µM) | relative viability ([2]; first compound 4 µM) | relative viability ([3]; first compound 0.04 µM) | relative viability ([3]; first compound 0.1265 µM) | relative viability ([3]; first compound 0.4 µM) | relative viability ([3]; first compound 1.265 µM) | relative viability ([3]; first compound 4 µM) | relative viability ([4]; first compound 0.04 µM) | relative viability ([4]; first compound 0.1265 µM) | relative viability ([4]; first compound 0.4 µM) | relative viability ([4]; first compound 1.265 µM) | relative viability ([4]; first compound 4 µM)
PC-14 | 0.132 | 0.108 | 0.148 | 0.134 | 0.112 | 1 | 0.866 | 0.953 | 0.961 | 0.665 | 1.05 | 1.04 | 1.09 | 0.978 | 0.727 | 0.747 | 0.692 | 0.355 | 0.58 | 0.302
RERF-LC-KJ | 0.522 | 0.468 | 0.42 | 0.442 | 0.417 | 0.989 | 0.863 | 0.862 | 0.874 | 0.708 | 0.849 | 1.1 | 0.977 | 0.946 | 0.619 | 0.7 | 0.653 | 0.586 | 0.594 | 0.623
SK-LU-1 | 1.01 | 0.981 | 0.975 | 0.596 | 0.301 | 0.597 | 0.925 | 1.31 | 0.771 | 0.316 | 1.06 | 0.817 | 0.508 | 0.634 | 0.168 | 0.827 | 0.771 | 0.766 | 0.545 | 0.298
SK-MES-1 | 0.903 | 0.921 | 0.818 | 0.553 | 0.42 | 1.08 | 1.03 | 1.07 | 1.05 | 0.691 | 1.21 | 1.15 | 1.24 | 1.1 | 0.408 | 1.12 | 1.04 | 0.902 | 0.422 | 0.393
SW 1573 | – | 0.88 | 0.703 | 0.559 | 0.393 | 1.03 | 0.959 | 0.718 | 0.78 | 0.432 | 1.12 | 0.959 | 0.945 | 0.672 | 0.553 | – | 0.956 | 0.408 | 0.432 | 0.466
UMC-11 | 0.799 | 0.762 | 0.866 | 0.754 | 0.681 | 0.935 | 0.937 | 1 | 1 | 0.989 | 0.288 | 0.263 | 0.295 | 0.324 | 0.327 | 0.374 | 0.337 | 0.447 | 0.297 | 0.315

Source: the supplement of paper PMC10307832
